In patent US20190282692A1, “SELECTIVE LOCAL INHIBITION OF TNFR1-MEDIATED FUNCTIONS AT THE SITE OF ANTIGEN/ALLERGEN PRESENTATION” (priority 2012, published 2019):
Several values for one entry are separate records, joined by “and”; a condition that tells them apart may be missing. Identical values can stand only once.

What was measured:
NF-kappa B translocation = details: read-out: concentration for 50% inhibition of NF-kappa B translocation; cited from earlier work
[1] = test system: CD4+ T cells purified from human peripheral blood; details: cited from earlier work
IL-4 gene transcription = details: read-out: concentration for 50% inhibition of IL-4 gene transcription; cited from earlier work
[2] = test system: isolated rat cardiomyocytes; details: cited from earlier work; for reproduction of the effects of in vivo NAC treatment (glutathione repletion, unmasking of TNFR2-mediated effects): 50 μmol/L; for protection against deleterious effects of TNF-alpha on contraction: preincubation 2-3 hours, 50 μM GSM or exogenously added NAC, cardiomyocytes from control rats
[3] = cited from earlier work
left ventricle = details: 3-day NAC treatment 120 mg/kg/day, 2-month post-myocardial infarction rats; cited from earlier work
[4] = test system: T cells purified from human peripheral blood; details: 10 mM NAC, after two passages; cited from earlier work
[5] = 600 mg to 1000 mg NAC three times daily orally, 4 weeks; cited from earlier work
[6] = 8 days, cited from earlier work
[7] = test system: purified tonsillar B cells; details: 20 mM NAC; cited from earlier work
[8] = test system: purified peripheral blood T cells; details: cited from earlier work
[9] = test system: T cells purified from human peripheral blood; details: 20 mM NAC, Con A 2.5 μg/ml, 40 hours; cited from earlier work
resting T cells = resting T cells from seven donors, 3 day period, NAC 1 mM to 20 mM; cited from earlier work
[10] = test system: purified peripheral blood T cells; details: 20 mM NAC, Con A 10 μg/ml; cited from earlier work
[11] = cited from earlier work; remark: listed apart in the source
[12] = 1800 mg/day oral, one year, added to standard therapy; cited from earlier work
[13] = test system: purified tonsillar B cells; details: dose-dependent, significant with 0.5 mM, maximal with 20 mM NAC, 14 days; cited from earlier work
[14] = test system: TNFR2-mediated activation of NF-kappa B; details: high concentrations; cited from earlier work
[15] = test system: TNFR1-mediated activation of NF-kappa B; details: cited from earlier work
[16] = in vivo; cited from earlier work
[17] = test system: late phase asthmatic response to allergen challenge; details: cited from earlier work
[18] = test system: allergen-induced airways hyper-responsiveness; details: cited from earlier work
TNF-alpha = target: T1, TNF-alpha (Mus musculus, UniProt P06804); details: without inhibiting Teff activation; cited from earlier work
T1 construct: host or cells: mouse, in vivo
T1 sequence (P06804 80-235 limits assumed): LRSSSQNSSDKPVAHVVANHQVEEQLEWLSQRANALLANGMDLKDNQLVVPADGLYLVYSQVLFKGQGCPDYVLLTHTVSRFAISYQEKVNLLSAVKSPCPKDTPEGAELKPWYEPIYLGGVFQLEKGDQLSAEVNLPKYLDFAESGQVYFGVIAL

TNF = assay type: in vivo, human; details: for side effects of anti-TNF treatment in the patient: one patient with ankylosing spondylitis; for development of allergen-specific sIgG4 during specific immunotherapy: one vespid venom-allergic patient, SIT 2003-2009
Source text: Case report from the Allergy Center of the Technical University of Munich (TUM), Germany. A patient (at the first visit in July 2003) with systemic vespid venom allergy was under anti-TNF therapy with the soluble TNF receptor etanercept (Enbrel®) for ankolysing spondylitis since July 2002 (see FIG. 9). In July/2003, the patient experienced a mild to moderate anaphylactic reaction (grade 1-2 according to Ring and Messmer) with generalized urticaria, subjective breathing problems and dizziness after a wasp sting.
No sIgE was detectable against Ves v 2 and Ves v 3.
Similar results were also obtained in the ELISA analysis, where sIgG4 levels were detectable already in 2003 before SIT mainly against Ves v 1 and Ves v 5, which decreased slightly over time during SIT.
Discussion. […] Even amongst the group of SIT therapy failures/non-responders, we routinely observed an increase of sIgG4 levels to at least one allergen. Thus, this patient was the first and only one ever without any increase in sIgG4 to any of the vespid venom allergens. […] To our knowledge this was the only patient worldwide that received immunotherapy under anti-TNF inhibition treatment. Since there are several lines of evidence that TNFR2-mediated signaling is essential for the induction of tolerance, inhibition of TNFR2 appears to be responsible for the inhibitory effect of anti-TNF-alpha therapy on the efficacy of specific immunotherapy.

C3 convertase = details: cited from earlier work

CC(=O)Oc1ccccc1C(=O)O [ASA, acetylsalicylic acid]
IC50 (NF-kappa B translocation): ~3000 µM
inhibition of IL-4 secretion ([1]; 1 mM ASA): 47%
production of IFNγ ([1]; ASA 0.1 mM-3 mM): did not affect
production of IL-2 ([1]; ASA 0.1 mM-3 mM): did not affect
production of IL-13 ([1]; ASA 0.1 mM-3 mM): did not affect
IC50 (IL-4 gene transcription): ~1000 µM

N[C@@H](CCC(=O)N[C@@H](CS)C(=O)NCC(=O)O)C(=O)O [GSH, glutathione]
reproduction of the effects of in vivo NAC treatment ([2]; incubation 2-3 hours, 10 mmol/L): could not reproduce the effects of in vivo NAC treatment

CSC[C@H](NC(=O)CC[C@H](N)C(=O)O)C(=O)NCC(=O)O [GSM, S-Methylglutathione]
reproduction of the effects of in vivo NAC treatment (glutathione repletion, unmasking of TNFR2-mediated effects) ([2]; incubation 2-3 hours): reproduce the effects of in vivo NAC treatment
protection against deleterious effects of TNF-alpha on contraction [2]: protected against the deleterious effects of TNF-alpha on contraction
solubility in water [3]: 2.61 g/liter and 8.1 mM

CC(=O)N[C@@H](CS)C(=O)O [NAC, N-acetyl-L-cysteine]
GSH content of the left ventricle, % of control level in sham rats (left ventricle): 75%
stimulation of growth of peripheral blood T cell cultures [4]: 4-6 fold
GSH level in blood neutrophils, airway neutrophil count and elastase activity [5]: effective in augmenting the GSH level in blood neutrophils and decreasing the airway neutrophil count and elastase activity
decrease of ovalbumin-specific IgE ([6]; drinking water 0.5 g/liter NAC): ~30%
decrease of ovalbumin-specific IgG1 ([6]; drinking water 0.5 g/liter NAC): ~30%
synthesis of other Ig isotypes ([6]; drinking water 1 g NAC/liter): not significantly affected
IgE and IgG1 antibody responses to ovalbumin ([6]; water containing 0.5-2.0 g/l NAC, 1 μg ovalbumin on aluminum hydroxide i.p.): decreased
reproduction of the effects of in vivo NAC treatment (glutathione repletion, unmasking of TNFR2-mediated effects) ([2]; incubation 2-3 hours): could not reproduce the effects of in vivo NAC treatment
protection against deleterious effects of TNF-alpha on contraction [2]: not protected
increase in B cell proliferation [7]: at least 5 fold
IFNγ production by T cells ([8]; 0.5-20 mM NAC): not affected
IL-5 production by T cells ([8]; 0.5-20 mM NAC): not affected
IL-4 production by T cells ([8]; maximal at 20 mM NAC): decreased in a dose-dependent manner
IL-2 production by T cells ([8]; up to 5 mM NAC): enhanced
enhancement of IL-2 production by T cells [9]: approximately 1.5 fold
cytotoxicity (resting T cells): nontoxic
increase in T cell proliferation [10]: approximately 4 fold
median tmax ([11]; human, in vivo): 1.0 h
highest non-toxic dose ([11]; in most of the subjects): 800 mg/m^2/day
plasma t1/2 ([11]; monoexponential plasma decay): 2.4 h
primary end points including vital capacity [12]: better
IgE production by B cells [13]: decreased
IgG4 production by B cells [13]: decreased

O=C([O-])c1ccccc1O.[Na+] [SA, sodium salicylate]
inhibition of TNFR2-mediated activation of NF-kappa B [14]: but not TNFR2-mediated activation of NF-kappa B
salicylate dose required for inhibition of TNFR1-mediated activation of NF-kappa B [15]: 10 to 20 mM

O=C(O)c1ccccc1O [salicylate]
level at which tinnitus may occasionally occur [16]: ≥ 95 µg/mL

IL-4 (R121D/Y124D)
course of late asthmatic response after experimental allergen challenge ([17]; asthmatic patients): positively affect
adverse events ([17]; subcutaneous injection up to 30 mg for up to 13 weeks or inhalation up to 60 mg for up to 4 weeks): few adverse events
cutaneous wheal response and circulating allergen-specific IgE ([18]; subcutaneous administration for 6 weeks or more): reduced
allergen-induced airways hyper-responsiveness ([18]; subcutaneously or via nebulization): protect allergic cynomolgus monkeys from allergen-induced airways hyper-responsiveness

etanercept
Teff-mediated Treg boost (TNF-alpha): significantly reduced the Teff-mediated Treg boost
side effects of anti-TNF treatment in the patient (TNF): increasing iritis symptoms
development of allergen-specific sIgG4 during specific immunotherapy (TNF): interferes with the development of allergen-specific sIgG4

hC3: human complement component C3
half-life of C3 convertase (C3 convertase): 1.5 min

infliximab
side effects of anti-TNF treatment in the patient (TNF): without major side effects
development of allergen-specific sIgG4 during specific immunotherapy (TNF): interferes with the development of allergen-specific sIgG4
